The values below come from patent US20210047304A1, “Bromodomain Inhibitors” (AbbVie Inc., priority 2016, published 2021).

This assay addresses BRD4 (BDI_K57-E168) (Homo sapiens, UniProt O60885). Briefly: TR-FRET bromodomain binding assay, BRD4 BDI. On the technique in general: TR-FRET usually uses a lanthanide donor and a delayed reading to cut background.
With `Cc1cc(F)cc(C)c1Oc1ccc(C(C)(C)O)cc1-c1cn(C)c(=O)cc1O[C@H]1CC[C@H](N2CCCS2(=O)=O)CC1` [Example 52, 2-[trans-4-({5-[2-(4-fluoro-2,6-dimethylphenoxy)-5-(2-hydroxypropan-2-yl)phenyl]-1-methyl-2-oxo-1,2-dihydropyridin-4-yl}oxy)cyclohexyl]-1lambda^6,2-thiazolidine-1,1-dione], the inhibition constant (Ki) – broadly, the equilibrium dissociation constant of an inhibitor or competing ligand from its target – came to 3.48 µM.

In turn, `COCC(=O)N[C@H]1CC[C@H](Oc2cc(=O)n(C)cc2-c2cc(C(C)(C)O)ccc2Oc2c(C)cc(F)cc2C)CC1` [Example 53, N-[trans-4-({5-[2-(4-fluoro-2,6-dimethylphenoxy)-5-(2-hydroxypropan-2-yl)phenyl]-1-methyl-2-oxo-1,2-dihydropyridin-4-yl}oxy)cyclohexyl]-2-methoxyacetamide] showed an inhibitory constant (Ki) of 1.44 µM. Compared with the last compound, the Ki is about 2.4-fold lower.

With `CC(=O)N(CCO)[C@H]1CC[C@H](Oc2cc(=O)n(C)cc2-c2cc(C(C)(C)O)ccc2Oc2c(C)cc(F)cc2C)CC1` [Example 54, N-[trans-4-({5-[2-(4-fluoro-2,6-dimethylphenoxy)-5-(2-hydroxypropan-2-yl)phenyl]-1-methyl-2-oxo-1,2-dihydropyridin-4-yl}oxy)cyclohexyl]-N-(2-hydroxyethyl)acetamide], the inhibition constant Ki is 2.26 µM.

`CCOC(=O)CC(=O)N[C@H]1CC[C@H](Oc2cc(=O)n(C)cc2-c2cc(C(C)(C)O)ccc2Oc2c(C)cc(F)cc2C)CC1` [Example 55, ethyl 3-{[trans-4-({5-[2-(4-fluoro-2,6-dimethylphenoxy)-5-(2-hydroxypropan-2-yl)phenyl]-1-methyl-2-oxo-1,2-dihydropyridin-4-yl}oxy)cyclohexyl]amino}-3-oxopropanoate] gave a Ki of 1.87 µM. This Ki and that of the compound before are within 1.5-fold of each other.

Regarding `CC(=O)C(=O)N[C@H]1CC[C@H](Oc2cc(=O)n(C)cc2-c2cc(C(C)(C)O)ccc2Oc2c(C)cc(F)cc2C)CC1` [Example 56, N-[trans-4-({5-[2-(4-fluoro-2,6-dimethylphenoxy)-5-(2-hydroxypropan-2-yl)phenyl]-1-methyl-2-oxo-1,2-dihydropyridin-4-yl}oxy)cyclohexyl]-2-oxopropanamide], the inhibitory constant (Ki) turned out to be 2.43 µM.

The compound `Cc1cc(F)cc(C)c1Oc1ccc(C(C)(C)O)cc1-c1cn(C)c(=O)cc1O[C@H]1CC[C@H](NC(=O)C(C)(C)C)CC1` [Example 57, N-[trans-4-({5-[2-(4-fluoro-2,6-dimethylphenoxy)-5-(2-hydroxypropan-2-yl)phenyl]-1-methyl-2-oxo-1,2-dihydropyridin-4-yl}oxy)cyclohexyl]-2,2-dimethylpropanamide] had an inhibitory constant (Ki) of 1.66 µM.

Compound `Cc1cc(F)cc(C)c1Oc1ccc(C(C)(C)O)cc1-c1cn(C)c(=O)cc1O[C@H]1CC[C@H](N(C)C(=O)C2(C)CC2)CC1` [Example 58, N-[trans-4-({5-[2-(4-fluoro-2,6-dimethylphenoxy)-5-(2-hydroxypropan-2-yl)phenyl]-1-methyl-2-oxo-1,2-dihydropyridin-4-yl}oxy)cyclohexyl]-N,1-dimethylcyclopropane-1-carboxamide] yielded a Ki of 0.783 µM.

In turn, `Cc1cc(F)cc(C)c1Oc1ccc(C(C)(C)O)cc1-c1cn(C)c(=O)cc1O[C@H]1CC[C@H](N(C)C(=O)C(C)(C)C)CC1` [Example 59, N-[trans-4-({5-[2-(4-fluoro-2,6-dimethylphenoxy)-5-(2-hydroxypropan-2-yl)phenyl]-1-methyl-2-oxo-1,2-dihydropyridin-4-yl}oxy)cyclohexyl]-N,2,2-trimethylpropanamide] displayed a Ki of 6.55 µM.

On to `Cc1cc(F)cc(C)c1Oc1ncc(C(C)(C)O)cc1-c1cn(C)c(=O)cc1O[C@H]1CC[C@H](N2CCCC2=O)CC1` [Example 60, 2′-(4-fluoro-2,6-dimethylphenoxy)-5′-(2-hydroxypropan-2-yl)-1-methyl-4-{[trans-4-(2-oxopyrrolidin-1-yl)cyclohexyl]oxy}[3,3′-bipyridin]-6(1H)-one], for which affinity was put at a Ki of 4.66 µM. This Ki and that of the compound before are within 1.5-fold of each other.

In turn, `Cc1cc(F)cc(C)c1Oc1ccc(C(C)(C)O)cc1-c1cn(C)c(=O)cc1O[C@H]1CC[C@H](C(=O)O)CC1` [Example 61, trans-4-({5-[2-(4-fluoro-2,6-dimethylphenoxy)-5-(2-hydroxypropan-2-yl)phenyl]-1-methyl-2-oxo-1,2-dihydropyridin-4-yl}oxy)cyclohexane-1-carboxylic acid] registered an inhibition constant Ki of 12.2 µM.

Consider `Cc1cc(F)cc(C)c1Oc1ccc(C(C)(C)O)cc1-c1cn(C)c(=O)cc1O[C@H]1CC[C@H](C(=O)N2CCCC2)CC1` [Example 62, 5-[2-(4-fluoro-2,6-dimethylphenoxy)-5-(2-hydroxypropan-2-yl)phenyl]-1-methyl-4-{[trans-4-(pyrrolidine-1-carbonyl)cyclohexyl]oxy}pyridin-2(1H)-one], for which affinity was put at a Ki of 8.37 µM.

With `CCNC(=O)[C@H]1CC[C@H](Oc2cc(=O)n(C)cc2-c2cc(C(C)(C)O)ccc2Oc2c(C)cc(F)cc2C)CC1` [Example 63, trans-N-ethyl-4-({5-[2-(4-fluoro-2,6-dimethylphenoxy)-5-(2-hydroxypropan-2-yl)phenyl]-1-methyl-2-oxo-1,2-dihydropyridin-4-yl}oxy)cyclohexane-1-carboxamide], the affinity corresponds to a Ki of 5.96 µM. This Ki and that of the compound before are within 1.5-fold of each other.

`COCCN(C(=O)C1(C)CC1)[C@H]1CC[C@H](Oc2cc(=O)n(C)cc2-c2cc(C(C)(C)O)ccc2Oc2c(C)cc(F)cc2C)CC1` [Example 64, N-[trans-4-({5-[2-(4-fluoro-2,6-dimethylphenoxy)-5-(2-hydroxypropan-2-yl)phenyl]-1-methyl-2-oxo-1,2-dihydropyridin-4-yl}oxy)cyclohexyl]-N-(2-methoxyethyl)-1-methylcyclopropane-1-carboxamide] gave an inhibitory constant (Ki) of 1.95 µM.

As to `COCCCN(C(=O)C1(C)CC1)[C@H]1CC[C@H](Oc2cc(=O)n(C)cc2-c2cc(C(C)(C)O)ccc2Oc2c(C)cc(F)cc2C)CC1` [Example 65, N-[trans-4-({5-[2-(4-fluoro-2,6-dimethylphenoxy)-5-(2-hydroxypropan-2-yl)phenyl]-1-methyl-2-oxo-1,2-dihydropyridin-4-yl}oxy)cyclohexyl]-N-(3-methoxypropyl)-1-methylcyclopropane-1-carboxamide], the Ki was 1.86 µM.

In the case of `CCOC(=O)CN(C(=O)C1(C)CC1)[C@H]1CC[C@H](Oc2cc(=O)n(C)cc2-c2cc(C(C)(C)O)ccc2Oc2c(C)cc(F)cc2C)CC1` [Example 66, ethyl N-[trans-4-({5-[2-(4-fluoro-2,6-dimethylphenoxy)-5-(2-hydroxypropan-2-yl)phenyl]-1-methyl-2-oxo-1,2-dihydropyridin-4-yl}oxy)cyclohexyl]-N-(1-methylcyclopropane-1-carbonyl)glycinate], the affinity, expressed as Ki, was 1.32 µM.

In turn, `Cc1cc(F)cc(C)c1Oc1ccc(C(C)(C)O)cc1-c1cn(C)c(=O)cc1O[C@H]1CC[C@H](C(C)(C)O)CC1` [Example 67, 5-[2-(4-fluoro-2,6-dimethylphenoxy)-5-(2-hydroxypropan-2-yl)phenyl]-4-{[trans-4-(2-hydroxypropan-2-yl)cyclohexyl]oxy}-1-methylpyridin-2(1H)-one] returned a Ki of 2.83 µM.

With `Cc1cc(F)cc(C)c1Oc1ccc(C(C)(C)O)cc1-c1cn(C)c(=O)cc1O[C@H]1CC[C@@H](C#N)CC1` [Example 68, cis-4-({5-[2-(4-fluoro-2,6-dimethylphenoxy)-5-(2-hydroxypropan-2-yl)phenyl]-1-methyl-2-oxo-1,2-dihydropyridin-4-yl}oxy)cyclohexane-1-carbonitrile], the inhibitory constant (Ki) was found to be 1.95 µM.

For the compound `Cc1cc(F)cc(C)c1Oc1ccc(C(C)(C)O)cc1-c1cn(C)c(=O)cc1O[C@H]1CC[C@H](C#N)CC1` [Example 69, trans-4-({5-[2-(4-fluoro-2,6-dimethylphenoxy)-5-(2-hydroxypropan-2-yl)phenyl]-1-methyl-2-oxo-1,2-dihydropyridin-4-yl}oxy)cyclohexane-1-carbonitrile], the inhibition constant (Ki) was determined as 7.25 µM.

`COCC1(C(=O)N[C@H]2CC[C@H](Oc3cc(=O)n(C)cc3-c3cc(C(C)(C)O)ccc3Oc3c(C)cc(F)cc3C)CC2)CC1` [Example 70, N-[trans-4-({5-[2-(4-fluoro-2,6-dimethylphenoxy)-5-(2-hydroxypropan-2-yl)phenyl]-1-methyl-2-oxo-1,2-dihydropyridin-4-yl}oxy)cyclohexyl]-1-(methoxymethyl)cyclopropane-1-carboxamide] gave a Ki of 4.1 µM. This Ki lies about 1.8-fold lower than the previous one.

Take `COCC(C)(C)C(=O)N[C@H]1CC[C@H](Oc2cc(=O)n(C)cc2-c2cc(C(C)(C)O)ccc2Oc2c(C)cc(F)cc2C)CC1` [Example 71, N-[trans-4-({5-[2-(4-fluoro-2,6-dimethylphenoxy)-5-(2-hydroxypropan-2-yl)phenyl]-1-methyl-2-oxo-1,2-dihydropyridin-4-yl}oxy)cyclohexyl]-3-methoxy-2,2-dimethylpropanamide]: the Ki stood at 5.08 µM.

The compound `Cc1cc(F)cc(C)c1Oc1ccc(C(C)(C)O)cc1-c1cn(C)c(=O)cc1O[C@H]1CC[C@H](NC(=O)C2(C)COC2)CC1` [Example 73, N-[trans-4-({5-[2-(4-fluoro-2,6-dimethylphenoxy)-5-(2-hydroxypropan-2-yl)phenyl]-1-methyl-2-oxo-1,2-dihydropyridin-4-yl}oxy)cyclohexyl]-3-methyloxetane-3-carboxamide] had an inhibition constant (Ki) of 2.26 µM.

`Cc1cc(F)cc(C)c1Oc1ccc(C(C)(C)O)cc1-c1cn(C)c(=O)cc1O[C@H]1CC[C@@H](C(C)(C)O)CC1` [Example 74, 5-[2-(4-fluoro-2,6-dimethylphenoxy)-5-(2-hydroxypropan-2-yl)phenyl]-4-{[cis-4-(2-hydroxypropan-2-yl)cyclohexyl]oxy}-1-methylpyridin-2(1H)-one] came in with an inhibition constant Ki of over 13 µM.

Take `Cc1cc(F)cc(C)c1Oc1ccc(C(C)(C)O)cc1-c1cn(C)c(=O)cc1O[C@H]1CC[C@@H](C(=O)O)CC1` [Example 75, cis-4-({5-[2-(4-fluoro-2,6-dimethylphenoxy)-5-(2-hydroxypropan-2-yl)phenyl]-1-methyl-2-oxo-1,2-dihydropyridin-4-yl}oxy)cyclohexane-1-carboxylic acid]: the Ki was over 13 µM.

Take `CCNC(=O)[C@H]1CC[C@@H](Oc2cc(=O)n(C)cc2-c2cc(C(C)(C)O)ccc2Oc2c(C)cc(F)cc2C)CC1` [Example 76, cis-N-ethyl-4-({5-[2-(4-fluoro-2,6-dimethylphenoxy)-5-(2-hydroxypropan-2-yl)phenyl]-1-methyl-2-oxo-1,2-dihydropyridin-4-yl}oxy)cyclohexane-1-carboxamide]: the Ki worked out at 7.69 µM. In other words, the single-digit micromolar range.
